Assay results reported in patent US20210060013A1, “Method for Preventing Triple Negative Breast Cancer in Predisposed Subjects” (Southern University of Science and Technology, priority 2019, published 2021).

What was measured:
PDGFRβ [1] = biological target: PDGFRβ (Homo sapiens, UniProt P09619); details: cited from earlier work
PDGFRα = PDGFRα (Homo sapiens, UniProt P16234); details: cited from earlier work
[2] = in vivo; cited from earlier work
[3] = tested on: inflammatory breast cancer cells; details: in vitro; cited from earlier work
[4] = tested on: other known RTKs (e.g., VEGFR or fibroblast growth factor receptor) or serine/threonine kinases (e.g. Abl, Raf); details: at concentrations that are used clinically; cited from earlier work
PDGFRβ [5] = assay: Induced PDGFRβ pathway signaling in human mammary fibroblasts (Western blot); type: cell-based
Method: SDS/PAGE and Western Blot Analysis. The labeling performance of probe 1 to various bait proteins was characterized by high-resolution SDS/PAGE using the PROTEAN II xi Cell electrophoresis instrument (gel size, 16×20 cm; Bio-Rad) and Coomassie brilliant blue staining. Equal amounts of protein were separated by SDS/PAGE and transferred to membranes. Membranes were blocked in 5% (wt/vol) BSA and then incubated with a primary antibody overnight at 4° C., followed by an incubation with an HRP-conjugated anti-rabbit or anti-mouse secondary antibody (Cell Signaling Technology). Proteins were visualized using a Western ECL Substrate Kit (Bio-Rad). The primary antibodies used in this study were streptavidin-HRP (Thermo Fisher), anti-4G10 (Merck Millipore), anti-His (Cell Signaling Technology), anti-EGFR (Cell Signaling Technology), anti-ERBB2 (Cell Signaling Technology), anti-PDGFRB (Cell Signaling Technology), anti-p-STAT3 (Cell Signaling Technology), anti-p-AKT (Cell Signaling Technology), anti-AKT (Cell Signaling Technology), anti-p-ERK 1/2 (Cell Signaling Technology), anti-ERK 1/2 (Cell Signaling Technology), and anti-β-actin (Beyotime).
In addition, the ability of the present invention to block PDGFR signaling in a conditioned media in vitro system was investigated. […]

MMTV-PyMT mice = assay: MMTV-PyMT mouse model of breast cancer, preventive crenolanib treatment; type: in vivo; details: for tumor growth (tumor volumes by calipers) vs vehicle-treated mice: measured every 5 d, beginning at day 10, FIGS. 1A, 1B
Method: FIGS. 1A to 1C show the ability of the present invention to prevent the development of mammary tumors in a subject genetically predisposed and at high risk of developing breast cancer. MMTV-PyMT mice were administered crenolanib starting at 8 weeks of age, before the development of palpable mammary tumors. FIG. 1A: Mice were treated with 20 mg/kg crenolanib, dissolved in vehicle, intraperitoneally once daily for 35 days. FIG. 1B: Tumor sizes were measured using digital calipers every 5 days during treatment and volumes were calculated using a standard formula ((length×width)/2)). Control mice were treated with vehicle alone. FIG. 1C: At the end of crenolanib treatment, mice were sacrificed, and final tumor weight was determined.
In the MMTV-PyMT mouse model of breast cancer, the Polyoma Virus middle T antigen is expressed under the control of the mouse mammary tumor virus promoter, which results in spontaneous formation of mammary tumors in female mice. This model effectively recapitulates all of the stages of human disease, and mice develop tumors begin developing palpable mammary tumors at approximately 13 weeks of age (Guy, Cardiff, & Muller, 1992). Therefore, the MMTV-PyMT model is a highly reproducible and highly faithful model for the development of TNBC.
Animal Studies. All animal procedures were approved by the Institutional Animal Care and Use Committee at Southern University of Science and Technology. Twelve 8-wk-old female MMTV-PyMT mice were divided into six groups. The two mice in each group were littermates. Each group of mice was treated with crenolanib (20 mg/kg, dissolved in vehicle; Selleck) or vehicle [5% (vol/vol) glycerol formal; Sigma] intraperitoneally once daily for 35 d. Once palpable, tumor sizes were measured with a digital caliper every 5 d, and the volumes were calculated using the formula (length×width)/2. Data were reported as means±SE. At the end of crenolanib treatment, mice were killed, and tumors were harvested and weighted.
In vivo analysis also validated that PDGFRB was prominently expressed in tumor associated stromal cells, including spindle-shaped fibroblasts, but not in tumor tissues by using the polyoma middle T (PyMT) oncogene-driven breast cancer mouse model, which mimics all identifiable stages of human breast cancer progression (28) (data not shown). […] To further analyze the paracrine effects of breast cancer cells on fibroblast expansion, the inventors assessed the ligand secretion by breast cancer cells (data not shown). […] Tumor volumes in crenolanib-treated and untreated mice were measured every 5 d after dosing initiation. […] In addition, tumor weight per mouse at sacrifice (12 wk) was 55% lower in crenolanib-treated mice than in vehicle-treated mice (FIG. 1C).

[6] = treatment starting at 8 weeks of age, before palpable mammary tumors

Sequence of PDGFRβ (Homo sapiens, UniProt P09619) (P09619 33-1106): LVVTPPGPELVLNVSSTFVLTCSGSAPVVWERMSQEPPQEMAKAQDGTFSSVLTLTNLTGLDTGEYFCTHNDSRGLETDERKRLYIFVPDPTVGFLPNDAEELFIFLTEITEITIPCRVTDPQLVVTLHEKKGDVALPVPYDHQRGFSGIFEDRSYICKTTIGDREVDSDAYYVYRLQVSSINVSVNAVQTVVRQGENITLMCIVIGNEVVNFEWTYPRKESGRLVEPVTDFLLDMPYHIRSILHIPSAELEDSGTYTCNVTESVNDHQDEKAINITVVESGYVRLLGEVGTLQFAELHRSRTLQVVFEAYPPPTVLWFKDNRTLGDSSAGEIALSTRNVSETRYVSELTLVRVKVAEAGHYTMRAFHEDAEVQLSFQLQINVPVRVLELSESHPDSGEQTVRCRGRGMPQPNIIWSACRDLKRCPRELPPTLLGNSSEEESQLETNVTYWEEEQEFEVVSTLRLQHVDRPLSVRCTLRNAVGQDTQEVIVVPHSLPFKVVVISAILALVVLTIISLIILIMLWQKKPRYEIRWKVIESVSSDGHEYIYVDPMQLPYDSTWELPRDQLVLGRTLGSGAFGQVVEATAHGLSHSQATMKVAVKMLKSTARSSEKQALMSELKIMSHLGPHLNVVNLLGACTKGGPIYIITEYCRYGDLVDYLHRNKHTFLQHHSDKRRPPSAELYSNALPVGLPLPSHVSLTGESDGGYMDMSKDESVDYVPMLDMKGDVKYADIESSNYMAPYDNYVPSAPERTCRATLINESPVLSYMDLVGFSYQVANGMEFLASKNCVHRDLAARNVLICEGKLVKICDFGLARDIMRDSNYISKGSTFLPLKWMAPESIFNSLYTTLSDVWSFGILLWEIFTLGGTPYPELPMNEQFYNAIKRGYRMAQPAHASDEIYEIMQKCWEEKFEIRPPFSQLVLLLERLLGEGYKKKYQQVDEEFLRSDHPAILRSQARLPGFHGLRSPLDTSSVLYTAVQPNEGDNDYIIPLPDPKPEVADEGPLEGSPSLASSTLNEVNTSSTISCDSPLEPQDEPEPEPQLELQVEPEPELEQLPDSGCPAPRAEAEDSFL
Sequence of PDGFRα (P16234 24-1089): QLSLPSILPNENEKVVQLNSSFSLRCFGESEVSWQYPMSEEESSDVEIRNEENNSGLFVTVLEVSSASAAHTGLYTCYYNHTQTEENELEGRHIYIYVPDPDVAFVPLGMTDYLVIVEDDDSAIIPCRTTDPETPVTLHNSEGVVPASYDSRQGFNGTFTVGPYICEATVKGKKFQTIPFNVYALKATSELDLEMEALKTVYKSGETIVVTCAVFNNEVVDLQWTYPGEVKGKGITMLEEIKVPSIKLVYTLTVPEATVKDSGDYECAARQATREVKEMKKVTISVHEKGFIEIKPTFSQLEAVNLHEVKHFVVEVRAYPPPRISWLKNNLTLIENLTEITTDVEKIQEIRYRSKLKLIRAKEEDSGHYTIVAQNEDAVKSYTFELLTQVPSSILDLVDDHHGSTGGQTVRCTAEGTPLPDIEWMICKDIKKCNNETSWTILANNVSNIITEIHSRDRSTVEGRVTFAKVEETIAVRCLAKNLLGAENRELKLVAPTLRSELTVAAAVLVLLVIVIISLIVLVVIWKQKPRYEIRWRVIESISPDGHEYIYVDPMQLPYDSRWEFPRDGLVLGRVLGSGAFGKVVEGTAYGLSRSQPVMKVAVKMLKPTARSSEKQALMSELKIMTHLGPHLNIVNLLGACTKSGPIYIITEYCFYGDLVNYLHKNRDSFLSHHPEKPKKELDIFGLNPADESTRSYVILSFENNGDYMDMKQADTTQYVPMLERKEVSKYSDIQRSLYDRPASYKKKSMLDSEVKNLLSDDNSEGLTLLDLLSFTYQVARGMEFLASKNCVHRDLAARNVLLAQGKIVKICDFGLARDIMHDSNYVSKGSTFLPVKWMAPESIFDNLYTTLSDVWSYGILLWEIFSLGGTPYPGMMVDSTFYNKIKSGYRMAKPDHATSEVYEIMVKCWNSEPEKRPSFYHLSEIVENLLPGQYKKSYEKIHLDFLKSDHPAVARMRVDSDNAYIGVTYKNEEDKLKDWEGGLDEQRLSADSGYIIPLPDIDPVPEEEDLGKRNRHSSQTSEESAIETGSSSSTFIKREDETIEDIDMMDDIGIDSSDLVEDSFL

## crenolanib besylate
PDGFRβ [1]
  inhibition of PDGFRβ: ability to inhibit
PDGFRα
  inhibition of PDGFRα: ability to inhibit
[2]
  oral bioavailability: orally bioavailable

## CC1(COc2ccc3c(c2)ncn3-c2ccc3cccc(N4CCC(N)CC4)c3n2)COC1 [crenolanib, 4-Piperidinamine, 1-[2-[5-[(3-methyl-3-oxetanyl)methoxy]-1H-benzimidazol-1-yl]-8-quinolinyl]]
[3]
  growth of inflammatory breast cancer cells: inhibits the growth
[4]
  inhibition of other known RTKs or serine/threonine kinases: does not inhibit
PDGFRβ [1]
  inhibition of PDGFRβ: highly selective inhibitor
PDGFRβ [5]; human mammary fibroblasts pre-treated, conditioned media from MDA-MB-468 cells, FIG. 2
  downstream pathway signaling (phosphorylated AK and ERK 1/2): inhibited
PDGFRβ [5]; human mammary fibroblasts pretreated with crenolanib, conditioned media from TNBC cell line MDA-MB468, FIG. 2 left half
  increase in PDGFRβ signaling induced by conditioned media: blocked this increased signaling
MMTV-PyMT mice; 20 mg/kg intraperitoneally once daily for 35 d from 8 wk of age, at sacrifice (12 wk), FIG. 1C
  tumor weight per mouse at sacrifice, lower than in vehicle-treated mice: 55%
MMTV-PyMT mice; 20 mg/kg intraperitoneally once daily for 35 d from 8 wk of age
  tumor growth (tumor volumes by calipers) vs vehicle-treated mice: grew significantly more slowly
MMTV-PyMT mice; 20 mg/kg intraperitoneally once daily for 35 d from 8 wk of age, listed as the present invention
  tumor growth (tumor volumes by calipers) vs vehicle-treated mice: significantly prevented tumor growth
MMTV-PyMT mice; [6]
  number of tumors: reduced
  tumor volume: reduced
  tumor weight: reduced
